Measurements published in PMC8037182, “Solvothermal Synthesis of Multiple Dihydropyrimidinones at a Time as Inhibitors of Eg5” (Molecules, 2021).

How the values were obtained:
[1] = test system: Caco-2 cell line; assay: Cytotoxicity MTS assay, Caco-2 cell line; format: cell-based; conditions: for OD490 Mean / OD490 Well 1 / OD490 Well 2 / OD490 Well 3: Caco-2 cell line
Procedure, shortened: (§1)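 MTS antiproliferation; 1000 cells/well, 24 h pre-incubation; compound 0.5–100 µM final, 24 h exposure; vehicle 0.025% DMSO; monastrol positive control; MTS 2 h, 37 °C, 5% CO2; A490; IC50 by non-linear regression of % viability vs concentration; three independent duplicate runs.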

[2] = test system: Hela cell line; assay: Cytotoxicity MTS assay, Hela cell line; format: cell-based; conditions: for OD490 value, Mean / OD490 value, Well 1 / OD490 value, Well 2 / OD490 value, Well 3: Hela cell line, MTS;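 for OD490 value, Mean: blank control wells received 0.025% DMSO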;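 for OD490 value, Well 1: blank control wells received 0.025% DMSO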;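 for OD490 value, Well 2: blank control wells received 0.025% DMSO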;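 for OD490 value, Well 3: blank control wells received 0.025% DMSO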
Procedure, shortened: as §1

## CCOC(=O)c1[nH]c(C2NC(=S)NC(C)=C2C(=O)OC)c(C(=O)OCC)c1C (centres unmarked) [D12]
[1]; 0.5μM, first assay
  OD490 Mean: 0.5030
  OD490 Well 1: 0.4995
  OD490 Well 2: 0.5121
  OD490 Well 3: 0.4973
[1]; 0.5μM, second assay
  OD490 Mean: 0.6834
  OD490 Well 1: 0.5732
  OD490 Well 2: 0.7838
  OD490 Well 3: 0.6933
[1]; 0.5μM, third assay
  OD490 Mean: 0.6157
  OD490 Well 1: 0.6017
  OD490 Well 2: 0.6354
  OD490 Well 3: 0.6100
[1]; 1μM, first assay
  OD490 Mean: 0.4963
  OD490 Well 1: 0.4703
  OD490 Well 2: 0.5352
  OD490 Well 3: 0.4835
[1]; 1μM, second assay
  OD490 Mean: 0.6457
  OD490 Well 1: 0.5559
  OD490 Well 2: 0.7221
  OD490 Well 3: 0.6591
[1]; 1μM, third assay
  OD490 Mean: 0.6229
  OD490 Well 1: 0.6178
  OD490 Well 2: 0.6489
  OD490 Well 3: 0.6021
[1]; 10μM, first assay
  OD490 Mean: 0.5326
  OD490 Well 1: 0.5238
  OD490 Well 2: 0.5488
  OD490 Well 3: 0.5251
[1]; 10μM, second assay
  OD490 Mean: 0.6099
  OD490 Well 1: 0.585
  OD490 Well 2: 0.6539
  OD490 Well 3: 0.5909
[1]; 10μM, third assay
  OD490 Mean: 0.6194
  OD490 Well 1: 0.6123
  OD490 Well 2: 0.6244
  OD490 Well 3: 0.6214
[1]; 25μM, first assay
  OD490 Mean: 0.5279
  OD490 Well 1: 0.5868
  OD490 Well 2: 0.5324
  OD490 Well 3: 0.4646
[1]; 25μM, second assay
  OD490 Mean: 0.5376
  OD490 Well 1: 0.5247
  OD490 Well 2: 0.5145
  OD490 Well 3: 0.5736
[1]; 25μM, third assay
  OD490 Mean: 0.5839
  OD490 Well 1: 0.5863
  OD490 Well 2: 0.5944
  OD490 Well 3: 0.5711
[1]; 50μM, first assay
  OD490 Mean: 0.5705
  OD490 Well 1: 0.5776
  OD490 Well 2: 0.5840
  OD490 Well 3: 0.5499
[1]; 50μM, second assay
  OD490 Mean: 0.6141
  OD490 Well 1: 0.6452
  OD490 Well 2: 0.6668
  OD490 Well 3: 0.5302
[1]; 50μM, third assay
  OD490 Mean: 0.5882
  OD490 Well 1: 0.5933
  OD490 Well 2: 0.5725
  OD490 Well 3: 0.5988
[1]; 100μM, first assay
  OD490 Mean: 0.4236
  OD490 Well 1: 0.4210
  OD490 Well 2: 0.4345
  OD490 Well 3: 0.4153
[1]; 100μM, second assay
  OD490 Mean: 0.5967
  OD490 Well 1: 0.5668
  OD490 Well 2: 0.6735
  OD490 Well 3: 0.5498
[1]; 100μM, third assay
  OD490 Mean: 0.4730
  OD490 Well 1: 0.4925
  OD490 Well 2: 0.4687
  OD490 Well 3: 0.4578
[1]; MTS assay, 24 h exposure
  IC50: 148 µM
[2]; 0.5μM, first assay
  OD490 value, Mean: 2.4447
  OD490 value, Well 1: 2.5235
  OD490 value, Well 2: 2.4821
  OD490 value, Well 3: 2.3285
[2]; 0.5μM, second assay
  OD490 value, Mean: 2.5426
  OD490 value, Well 1: 2.5366
  OD490 value, Well 2: 2.2547
  OD490 value, Well 3: 2.8365
[2]; 0.5μM, third assay
  OD490 value, Mean: 2.6167
  OD490 value, Well 1: 2.6535
  OD490 value, Well 2: 2.5478
  OD490 value, Well 3: 2.6489
[2]; 1μM, first assay
  OD490 value, Mean: 2.3871
  OD490 value, Well 1: 2.4815
  OD490 value, Well 2: 2.2707
  OD490 value, Well 3: 2.4090
[2]; 1μM, second assay
  OD490 value, Mean: 2.5625
  OD490 value, Well 1: 2.5302
  OD490 value, Well 2: 2.5698
  OD490 value, Well 3: 2.5874
[2]; 1μM, third assay
  OD490 value, Mean: 2.6475
  OD490 value, Well 1: 2.5896
  OD490 value, Well 2: 2.6985
  OD490 value, Well 3: 2.6543
[2]; 10μM, first assay
  OD490 value, Mean: 2.6552
  OD490 value, Well 1: 2.5708
  OD490 value, Well 2: 2.6029
  OD490 value, Well 3: 2.7920
[2]; 10μM, second assay
  OD490 value, Mean: 2.5779
  OD490 value, Well 1: 2.5898
  OD490 value, Well 2: 2.5741
  OD490 value, Well 3: 2.5698
[2]; 10μM, third assay
  OD490 value, Mean: 2.6011
  OD490 value, Well 1: 2.5898
  OD490 value, Well 2: 2.6635
  OD490 value, Well 3: 2.5501
[2]; 25μM, first assay
  OD490 value, Mean: 2.2305
  OD490 value, Well 1: 2.2367
  OD490 value, Well 2: 2.1978
  OD490 value, Well 3: 2.2571
[2]; 25μM, second assay
  OD490 value, Mean: 2.5197
  OD490 value, Well 1: 2.5698
  OD490 value, Well 2: 2.5525
  OD490 value, Well 3: 2.4369
[2]; 25μM, third assay
  OD490 value, Mean: 2.6373
  OD490 value, Well 1: 2.6859
  OD490 value, Well 2: 2.5363
  OD490 value, Well 3: 2.6896
[2]; 50μM, first assay
  OD490 value, Mean: 2.5183
  OD490 value, Well 1: 2.3673
  OD490 value, Well 2: 2.6584
  OD490 value, Well 3: 2.5291
[2]; 50μM, second assay
  OD490 value, Mean: 2.5474
  OD490 value, Well 1: 2.4652
  OD490 value, Well 2: 2.5569
  OD490 value, Well 3: 2.6201
[2]; 50μM, third assay
  OD490 value, Mean: 2.5184
  OD490 value, Well 1: 2.4365
  OD490 value, Well 2: 2.5532
  OD490 value, Well 3: 2.5654
[2]; 100μM, first assay
  OD490 value, Mean: 2.3367
  OD490 value, Well 1: 2.4110
  OD490 value, Well 2: 2.1799
  OD490 value, Well 3: 2.4192
[2]; 100μM, second assay
  OD490 value, Mean: 2.4086
  OD490 value, Well 1: 2.3674
  OD490 value, Well 2: 2.4214
  OD490 value, Well 3: 2.4369
[2]; 100μM, third assay
  OD490 value, Mean: 2.3047
  OD490 value, Well 1: 2.1753
  OD490 value, Well 2: 2.3324
  OD490 value, Well 3: 2.4065
[2]; MTS assay, 24 h exposure
  IC50: > 150 µM
